Experimental data from patent US20240158446A1, “CYCLIC COMPOUND HAVING SELECTIVE INHIBITORY ACTION ON KRAS OVER HRAS AND NRAS” (CHUGAI SEIYAKU KABUSHIKI KAISHA, priority 2021, published 2024).
Where two headings read alike, the source gives them in different places. Where a SMILES comes first, the peptide text is derived from it. Bridges are numbered along the chain shown (N, C = ends). [ ]: non-standard residue; d: D form. The star is where a group is joined. hPhe(3-Cl-4-CF3) = N[C@@H](CCc1ccc(C(F)(F)F)c(Cl)c1)C(=O)O; NPrPhe(4-CF3) = CCCN[C@@H](Cc1ccc(C(F)(F)F)cc1)C(=O)O; NPrPhe(4-Me) = CCCN[C@@H](Cc1ccc(C)cc1)C(=O)O; NEtPhe(4-Me) = CCN[C@@H](Cc1ccc(C)cc1)C(=O)O; NMeGly(cPent) = CN[C@H](C(=O)O)C1CCCC1; NMeD = CN[C@@H](CC(=O)O)C(=O)O; NMeL = CN[C@@H](CC(C)C)C(=O)O; NMeV = CN[C@H](C(=O)O)C(C)C; Pip = O=C(O)[C@@H]1CCCCN1; Morpholide = C1CN(*)CCO1; Piperidide = C1CCN(*)CC1; Ac5c = NC1(C(=O)O)CCCC1; Aze = O=C(O)[C@@H]1CCN1; Sar = CNCC(=O)O

Columns and labels:
[1] = biological target: GDP-bound NRAS wild-type protein (Homo sapiens, UniProt P01111); assay: Binding to NRAS by surface plasmon resonance (SPR), Single Cycle Kinetics; settings: for NRAS/KRAS (ratio of KD value for NRAS to KD value for KRAS): SPR, GDP-bound NRAS wild-type protein vs GDP-bound KRAS wild-type protein
[2] = biological target: GDP-bound HRAS wild-type protein (Homo sapiens, UniProt P01112); assay: Binding to HRAS by surface plasmon resonance (SPR), Single Cycle Kinetics; settings: for HRAS/KRAS (ratio of KD value for HRAS to KD value for KRAS): SPR, GDP-bound HRAS wild-type protein vs GDP-bound KRAS wild-type protein
[3] = test system: human lung cancer strain NCI-H441;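 note: cell proliferation inhibition after four days measured by CellTiter-Glo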

Chain of GDP-bound NRAS wild-type protein (P01111 whole entry): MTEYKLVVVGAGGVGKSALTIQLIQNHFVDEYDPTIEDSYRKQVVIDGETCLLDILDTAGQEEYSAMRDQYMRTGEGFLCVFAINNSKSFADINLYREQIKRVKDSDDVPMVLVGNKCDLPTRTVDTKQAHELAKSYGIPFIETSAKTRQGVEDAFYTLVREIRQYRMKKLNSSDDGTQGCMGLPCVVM
Chain of GDP-bound HRAS wild-type protein (P01112 whole entry): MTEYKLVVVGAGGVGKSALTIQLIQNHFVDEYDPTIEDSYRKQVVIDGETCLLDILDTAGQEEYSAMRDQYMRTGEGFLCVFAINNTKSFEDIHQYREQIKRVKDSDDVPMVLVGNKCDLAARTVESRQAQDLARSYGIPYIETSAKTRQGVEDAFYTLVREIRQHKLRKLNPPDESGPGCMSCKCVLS

IC50 [3]	SMILES	NRAS/KRAS (ratio of KD value for NRAS to KD value for KRAS) [1]	HRAS/KRAS (ratio of KD value for HRAS to KD value for KRAS) [2]	other results
33.9 nM	CCC[C@H]1C(=O)N[C@H]([C@@H](C)CC)C(=O)N(C)CC(=O)N(C)[C@H]2C/C=C\CCN(C2=O)[C@@H](Cc2ccc(C)cc2)C(=O)N(C)CC(=O)N[C@@H](CCc2cc(F)c(C(F)F)c(F)c2)C(=O)N2C[C@H](OCC)C[C@H]2C(=O)NC2(CC(C)(C)C2)C(=O)N(C)[C@@H](C(CC)CC)C(=O)N(C)[C@H](C(=O)N(C)C)CC(=O)N1C (stereo in doubt) [PP2783]			NRAS/KRAS (ratio of KD value with respect to GDP-bound NRAS wild-type protein to KD value with respect to KRAS) ([1]; SPR KD ratio NRAS/KRAS, class symbols): A (a compound having 10 or more and less than 20 is denoted as A); HRAS/KRAS (ratio of KD value with respect to GDP-bound HRAS wild-type protein to KD value with respect to KRAS) ([2]; SPR KD ratio HRAS/KRAS, class symbols): A (a compound having 10 or more and less than 20 is denoted as A)
17.9 nM	CCOC1CC2C(=O)NC3(CCC3)C(=O)N(C)C(C(C)CC)C(=O)N(C)[C@H](C(=O)N3CCOCC3)CC(=O)N(C)[C@@H](CC(C)C)C(=O)N[C@@H]([C@@H](C)CC)C(=O)N(C)CC(=O)N(C)[C@H]3CCCCN(C3=O)[C@@H](Cc3ccc(C(F)(F)F)cc3)C(=O)N(C)CC(=O)N[C@@H](CCc3cc(F)c(C(F)(F)F)c(F)c3)C(=O)N2C1 (stereo partly shown) [PP0812]			

More lines, now with the values behind:

SMILES	IC50 [3]	NRAS/KRAS (ratio of KD value for NRAS to KD value for KRAS) [1]	HRAS/KRAS (ratio of KD value for HRAS to KD value for KRAS) [2]	other results
CC[C@H](C)[C@@H]1NC(=O)[C@H](CC(C)C)N(C)C(=O)C[C@@H](C(=O)N2CCOCC2)N(C)C(=O)[C@H](C(C)C)N(C)C(=O)C2(CCCC2)NC(=O)[C@@H]2CCCN2C(=O)[C@H](CCc2ccc(C(F)(F)F)c(Cl)c2)NC(=O)CN(C)C(=O)[C@H](Cc2ccc(C)cc2)N(CC)C(=O)CN(C)C(=O)CN(C)C1=O [PP0044] ([NMeL]I[Sar][Sar][NEtPhe(4-Me)][Sar][hPhe(3-Cl-4-CF3)]P[Ac5c][NMeV][NMeD]-Morpholide; lactam N-11)	142 nM	C (A compound having a KD ratio of 0.1 or more and less than 3 is denoted as C)	C (A compound having a KD ratio of 0.1 or more and less than 3 is denoted as C)	
CCCN1C(=O)[C@@H]2CCN2C(=O)[C@@H]2CCCCN2C(=O)[C@H]([C@@H](C)CC)NC(=O)[C@H](CC(C)C)N(C)C(=O)C[C@@H](C(=O)N2CCOCC2)N(C)C(=O)[C@H](C2CCCC2)N(C)C(=O)C2(CCCC2)NC(=O)[C@@H]2CCCN2C(=O)[C@H](CCc2ccc(C(F)(F)F)c(Cl)c2)NC(=O)CN(C)C(=O)[C@@H]1Cc1ccc(C)cc1 [PP0070] ([NMeL]I[Pip][Aze][NPrPhe(4-Me)][Sar][hPhe(3-Cl-4-CF3)]P[Ac5c][NMeGly(cPent)][NMeD]-Morpholide; lactam N-11)	2.1 nM	C (A compound having a KD ratio of 0.1 or more and less than 3 is denoted as C)	B (a compound having 3 or more and less than 10 is denoted as B)	
CCCN1C(=O)[C@@H]2CCN2C(=O)[C@@H]2CCCCN2C(=O)[C@H]([C@@H](C)CC)NC(=O)[C@H](CC(C)C)N(C)C(=O)C[C@@H](C(=O)N2CCOCC2)N(C)C(=O)[C@H](C2CCCC2)N(C)C(=O)C2(CCCC2)NC(=O)[C@@H]2CCCN2C(=O)[C@H](CCc2ccc(C(F)(F)F)c(Cl)c2)NC(=O)CN(C)C(=O)[C@@H]1Cc1ccc(C(F)(F)F)cc1 [PP0077] ([NMeL]I[Pip][Aze][NPrPhe(4-CF3)][Sar][hPhe(3-Cl-4-CF3)]P[Ac5c][NMeGly(cPent)][NMeD]-Morpholide; lactam N-11)	5.3 nM	C (A compound having a KD ratio of 0.1 or more and less than 3 is denoted as C)	B (a compound having 3 or more and less than 10 is denoted as B)	
CCCN1C(=O)CN(C)C(=O)CN(C)C(=O)[C@H]([C@@H](C)CC)NC(=O)[C@H](CC(C)C)N(C)C(=O)C[C@@H](C(=O)N2CCCCC2)N(C)C(=O)[C@H](C2CCCC2)N(C)C(=O)C2(CCCC2)NC(=O)[C@@H]2CCCN2C(=O)[C@H](CCc2ccc(C(F)(F)F)c(Cl)c2)NC(=O)CN(C)C(=O)[C@@H]1Cc1ccc(C(F)(F)F)cc1 [PP0171] ([NMeL]I[Sar][Sar][NPrPhe(4-CF3)][Sar][hPhe(3-Cl-4-CF3)]P[Ac5c][NMeGly(cPent)][NMeD]-Piperidide; lactam N-11)				IC50 ([3]; read-out: NCI-H441 IC50, NCI-H441 cells, four days, CellTiter-Glo): 6.9 nM
CC[C@H](C)[C@@H]1NC(=O)[C@H](CC(C)C)N(C)C(=O)C[C@@H](C(=O)N(C)C)N(CCC2CCCC2)C(=O)[C@H](C2CCCC2)N(C)C(=O)C2(CCCC2)NC(=O)[C@@H]2CCCN2C(=O)[C@H](CCc2ccc(C(F)(F)F)c(Cl)c2)NC(=O)CN(C)C(=O)[C@H](Cc2ccc(F)cc2)N2CCCCC[C@@H](C2=O)N(C)C(=O)CN(C)C1=O [PP0975]	1570 nM			
CCO[C@@H]1C[C@H]2C(=O)NC3(CC(C)(C)C3)C(=O)N(C)[C@@H](C(CC)CC)C(=O)N(C)C(CC)CC(=O)N(C)[C@@H](CC)C(=O)N[C@@H]([C@@H](C)CC)C(=O)N(C)CC(=O)N(C)[C@H]3C/C=C\CCN(C3=O)[C@@H](Cc3ccc(C(F)(F)F)cc3)C(=O)N(C)CC(=O)N[C@@H](CCc3cc(F)c(C(F)(F)F)c(F)c3)C(=O)N2C1 (stereo partly shown) [PP1622]				IC50 ([3]; read-out: NCI-H441 IC50, NCI-H441 cell proliferation, 4 days, CellTiter-Glo): 28.1 nM
